Entries after “also recorded” stand apart in the source; their conditions may differ.
Experiments:
[1] = tested on: rats; conditions: 50 mg pellets containing 10 mg naloxone or naltrexone as base; cited from earlier work
[2] = Patients' blood levels of naltrexone and 6-beta-naltrexone after subcutaneous pellet implant; format: in vivo, human
[3] = tested on: opiate addicts; assay: Relapse studies after opiate reversal under general anesthesia (telephone follow-up); format: in vivo, human
[4] = cited from earlier work
[5] = tested on: male rats; conditions: pentobarbital injection; naltrexone by injection vs pellet; cited from earlier work
[6] = tested on: rats; conditions: chronic naltrexone exposure; cited from earlier work
[7] = tested on: patients; conditions: cited from earlier work

SMILES: C=CCN1CC[C@]23c4c5ccc(O)c4O[C@H]2C(=O)CC[C@@]3(O)[C@H]1C5 [naloxone, N-allylnoroxymorphone]
- analgesia on repeated painful stimulation [1]: repeated painful stimulation results in analgesia in rats treated with an opiate antagonist

SMILES: O=C1CC[C@@]2(O)[C@H]3Cc4ccc(O)c5c4[C@@]2(CCN3CC2CC2)[C@H]1O5 [naltrexone, N-cyclopropylmethylnoroxy morphone]
- duration of therapeutically effective naltrexone level in bloodstream ([2]; 1000 mg dose, inventive implant, ~2-8 ng/ml): approximately eighty
- Ntx level ([2]; 78 days since implant, patients' blood, pellet of Examples 1-4, listed as Ntx, 112320 min): 6 ng/mL
- concentration at 1920 h ([2]; human, blood, sc, 1000 mg, inventive implant, leveling off, for approximately eighty days, read-out: level of naltrexone in patient's bloodstream): 2 to 8 ng/mL
- concentration at 192 h ([2]; human, blood, sc, 8 days since implant, patients' blood, pellet of Examples 1-4, read-out: Ntx level): 7 ng/mL
- concentration at 336 h ([2]; human, blood, sc, 14 days since implant, patients' blood, pellet of Examples 1-4, read-out: Ntx level): 11 ng/mL
- concentration at 528 h ([2]; human, blood, sc, 22 days since implant, patients' blood, pellet of Examples 1-4, read-out: Ntx level): 7 ng/mL
- concentration at 672 h ([2]; human, blood, sc, 28 days since implant, patients' blood, pellet of Examples 1-4, read-out: Ntx level): 2 ng/mL
- concentration at 696 h ([2]; human, blood, sc, 29 days since implant, patients' blood, pellet of Examples 1-4, read-out: Ntx level): 2 ng/mL
- concentration at 768 h ([2]; human, blood, sc, 32 days since implant, patients' blood, pellet of Examples 1-4, read-out: Ntx level): 7 ng/mL
- concentration at 792 h ([2]; human, blood, sc, 33 days since implant, patients' blood, pellet of Examples 1-4, read-out: Ntx level): < 2 ng/mL
- concentration at 816 h ([2]; human, blood, sc, 34 days since implant, patients' blood, pellet of Examples 1-4, read-out: Ntx level): 4 ng/mL
- concentration at 840 h ([2]; human, blood, sc, 35 days since implant, patients' blood, pellet of Examples 1-4, read-out: Ntx level): 4 ng/mL
- concentration at 888 h ([2]; human, blood, sc, 37 days since implant, patients' blood, pellet of Examples 1-4, read-out: Ntx level): < 3 ng/mL
- concentration at 912 h ([2]; human, blood, sc, 38 days since implant, patients' blood, pellet of Examples 1-4, read-out: Ntx level): < 2 ng/mL
- concentration at 936 h ([2]; human, blood, sc, 39 days since implant, patients' blood, pellet of Examples 1-4, read-out: Ntx level): 5 ng/mL
- concentration at 1008 h ([2]; human, blood, sc, 42 days since implant, patients' blood, pellet of Examples 1-4, read-out: Ntx level): 4 ng/mL
- concentration at 1176 h ([2]; human, blood, sc, 49 days since implant, patients' blood, pellet of Examples 1-4, read-out: Ntx level): 4 ng/mL
- concentration at 1224 h ([2]; human, blood, sc, 51 days since implant, patients' blood, pellet of Examples 1-4, read-out: Ntx level): 8 ng/mL
- concentration at 1320 h ([2]; human, blood, sc, 55 days since implant, patients' blood, pellet of Examples 1-4, read-out: Ntx level): 36 ng/mL
- concentration at 1440 h ([2]; human, blood, sc, 60 days since implant, patients' blood, pellet of Examples 1-4, read-out: Ntx level): 10 ng/mL
- concentration at 1488 h ([2]; human, blood, sc, 62 days since implant, patients' blood, pellet of Examples 1-4, read-out: Ntx level): < 4 ng/mL
- concentration at 1560 h ([2]; human, blood, sc, 65 days since implant, patients' blood, pellet of Examples 1-4, read-out: Ntx level): < 2 ng/mL
- concentration at 1680 h ([2]; human, blood, sc, 70 days since implant, patients' blood, pellet of Examples 1-4, read-out: Ntx level): 3 ng/mL
- concentration at 1848 h ([2]; human, blood, sc, 77 days since implant, patients' blood, pellet of Examples 1-4, read-out: Ntx level): 2 ng/mL
- concentration at 1872 h ([2]; human, blood, sc, 78 days since implant, patients' blood, pellet of Examples 1-4, read-out: Ntx level): 4 ng/mL
- patients using opiates, assuming all not contacted were using ([3]; one month after opiate reversal, DNM versus ONM, x2=0.76 (not significant)): 54%
- patients using opiates, excluding those who could not be contacted ([3]; one month follow-up after ORGA, DNM 1000 mg per month pellet versus ONM 50 mg per day oral, x2=14.06 (very significant)): 44%
- level in bloodstream after leveling off, oral ([4]; 1000 mg naltrexone orally, after 48 hours / two days): 0 ng/mL
- duration of the 100 ng/ml level, oral ([4]; 1000 mg naltrexone orally): 48 h
- level in patient's bloodstream, oral ([4]; 1000 mg naltrexone orally, for 48 hours): 100 ng/mL
- undesirable side effects of conventional oral delivery ([4]; at approximately 100 ng/l in the blood stream): undesirable side effects such as an unpleasant feeling
- pentobarbital sleeping time [5]: increasingly antagonized after naltrexone administration by injection
- behavioral sensitivity / morphine-induced hyperactivity after chronic naltrexone [6]: produces behavioral supersensitivity to morphine-induced reinforcement and hyperactivity; also recorded: potentiated morphine-induced hyperactivity in rats
- analgesia on repeated painful stimulation [1]: repeated painful stimulation results in analgesia in rats treated with an opiate antagonist
- addiction liability ([7]; human, in vivo): neither addicting nor habit-forming
- euphoric effects / effects on stopping the drug ([7]; human, in vivo): provides no euphoric effects and there are no observable pharmacological consequences when a patient stops taking the drug
- side-effects ([7]; use in humans): free of severe side-effects
